# From ChEMBL document CHEMBL1909046, “DrugMatrix in vitro pharmacology data”
# Experiments:
# [1] = target: T1, Substance-K receptor (Homo sapiens, UniProt P21452); format: cell membranes, CHO, Membrane; also: in other assays of this panel Not Active means under 50% inhibition at 10 µM
# T1 sequence (P21452 whole entry): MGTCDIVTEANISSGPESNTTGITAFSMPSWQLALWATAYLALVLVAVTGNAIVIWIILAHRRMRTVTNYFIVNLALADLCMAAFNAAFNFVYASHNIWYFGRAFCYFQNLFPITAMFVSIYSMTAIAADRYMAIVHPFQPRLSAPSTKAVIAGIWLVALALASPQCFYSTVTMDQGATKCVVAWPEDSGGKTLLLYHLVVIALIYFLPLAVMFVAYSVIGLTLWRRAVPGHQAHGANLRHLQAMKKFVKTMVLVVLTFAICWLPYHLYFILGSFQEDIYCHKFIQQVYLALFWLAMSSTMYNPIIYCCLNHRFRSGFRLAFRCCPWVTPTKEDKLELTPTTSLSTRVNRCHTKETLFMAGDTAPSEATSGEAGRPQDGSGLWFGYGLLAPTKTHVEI
# [2] = target: Platelet-activating factor receptor (Homo sapiens, UniProt P25105); format: tissue-based; also: in other assays of this panel Not Active means under 50% inhibition at 10 µM
# [3] = target: T2, Type-2 angiotensin II receptor (Homo sapiens, UniProt P50052); format: cell-based; settings: cho-k1; also: in other assays of this panel Not Active means under 50% inhibition at 10 µM
# T2 sequence (P50052 whole entry): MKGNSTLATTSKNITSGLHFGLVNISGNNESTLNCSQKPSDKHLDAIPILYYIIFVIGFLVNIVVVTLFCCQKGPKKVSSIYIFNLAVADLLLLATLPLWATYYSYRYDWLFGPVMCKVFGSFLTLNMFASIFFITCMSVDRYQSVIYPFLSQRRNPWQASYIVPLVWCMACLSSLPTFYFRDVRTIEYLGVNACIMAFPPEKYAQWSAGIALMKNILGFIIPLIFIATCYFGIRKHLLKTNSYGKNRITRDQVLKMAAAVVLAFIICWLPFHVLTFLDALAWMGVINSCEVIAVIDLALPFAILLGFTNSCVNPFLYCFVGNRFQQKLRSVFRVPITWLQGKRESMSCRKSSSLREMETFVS
# [4] = DRUGMATRIX: Leukotriene, BLT (LTB4) radioligand binding (ligand: [3H]LTB4); format: cell membranes, Membrane; settings: u-937; Not Active = under 50% inhibition at 10 µM
# [5] = DRUGMATRIX: Serotonin (5-Hydroxytryptamine) 5-HT3 radioligand binding (ligand: [3H] GR-65630); format: cell membranes, Membrane; settings: hek293; Not Active = under 50% inhibition at 10 µM
# [6] = target: Sodium-dependent noradrenaline transporter (Homo sapiens, UniProt P23975); experiment: DRUGMATRIX: Norepinephrine Transporter radioligand binding (ligand: [125I] RTI-55); format: cell membranes, MDCK, Membrane; settings: Not Active = under 50% inhibition at 10 µM
# [7] = target: Estrogen receptor beta (Homo sapiens, UniProt Q92731); settings: sf9; also: in other assays of this panel Not Active means under 50% inhibition at 10 µM
# Sequence of Estrogen receptor beta (Q92731 whole entry): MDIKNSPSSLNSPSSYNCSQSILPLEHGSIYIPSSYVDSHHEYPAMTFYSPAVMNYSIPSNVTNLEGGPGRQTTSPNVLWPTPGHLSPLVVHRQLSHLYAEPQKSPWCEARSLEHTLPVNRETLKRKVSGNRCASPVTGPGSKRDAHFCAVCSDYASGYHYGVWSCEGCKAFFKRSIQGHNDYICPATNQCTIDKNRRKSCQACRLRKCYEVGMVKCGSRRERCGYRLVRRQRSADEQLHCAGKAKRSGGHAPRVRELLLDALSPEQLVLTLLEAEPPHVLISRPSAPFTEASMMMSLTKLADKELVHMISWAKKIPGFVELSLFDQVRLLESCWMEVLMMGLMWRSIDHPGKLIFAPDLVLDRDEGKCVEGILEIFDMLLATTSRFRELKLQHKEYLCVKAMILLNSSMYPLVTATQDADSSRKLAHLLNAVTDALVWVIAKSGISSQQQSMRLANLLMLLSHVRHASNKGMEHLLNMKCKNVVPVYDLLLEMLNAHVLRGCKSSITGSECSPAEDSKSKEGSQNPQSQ
# Sequence of Sodium-dependent noradrenaline transporter (P23975 whole entry): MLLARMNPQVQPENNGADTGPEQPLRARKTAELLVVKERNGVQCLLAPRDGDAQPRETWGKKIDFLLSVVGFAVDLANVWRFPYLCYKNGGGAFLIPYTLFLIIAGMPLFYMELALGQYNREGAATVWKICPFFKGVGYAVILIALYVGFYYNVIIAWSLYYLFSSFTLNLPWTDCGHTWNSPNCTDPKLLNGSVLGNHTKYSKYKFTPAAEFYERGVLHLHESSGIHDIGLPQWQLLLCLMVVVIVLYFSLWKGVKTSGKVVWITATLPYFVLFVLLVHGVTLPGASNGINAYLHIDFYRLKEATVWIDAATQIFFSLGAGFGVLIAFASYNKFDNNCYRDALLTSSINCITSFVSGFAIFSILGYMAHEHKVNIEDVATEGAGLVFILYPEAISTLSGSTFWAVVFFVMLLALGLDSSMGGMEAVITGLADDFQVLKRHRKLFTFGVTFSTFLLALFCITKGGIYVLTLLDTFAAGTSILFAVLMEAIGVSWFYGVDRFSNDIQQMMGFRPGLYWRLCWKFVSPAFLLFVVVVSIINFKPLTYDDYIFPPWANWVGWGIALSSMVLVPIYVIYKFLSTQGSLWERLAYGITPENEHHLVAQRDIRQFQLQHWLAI
# Sequence of Platelet-activating factor receptor (P25105 whole entry): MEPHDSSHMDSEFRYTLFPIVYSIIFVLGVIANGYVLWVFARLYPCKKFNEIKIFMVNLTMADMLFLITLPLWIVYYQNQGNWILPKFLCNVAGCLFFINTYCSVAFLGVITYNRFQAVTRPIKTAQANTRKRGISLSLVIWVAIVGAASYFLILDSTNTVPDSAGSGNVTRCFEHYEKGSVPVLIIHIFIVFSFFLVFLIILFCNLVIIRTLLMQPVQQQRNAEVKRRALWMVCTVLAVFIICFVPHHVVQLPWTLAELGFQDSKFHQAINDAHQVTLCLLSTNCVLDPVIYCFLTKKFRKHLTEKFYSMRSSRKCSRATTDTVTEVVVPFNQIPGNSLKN
Compound,IC50 ([1]; cho),IC50 [2],IC50 [3],IC50 [4],Ki [4],IC50 [5],Ki [5],IC50 ([6]; mdck),IC50 [7],Ki ([1]; cho),Ki [2],Ki [3],Ki ([6]; mdck),Ki [7],IC50 ([6]; read-out: IC50) [µM],Ki ([6]; read-out: Ki) [µM],IC50 ([1]; read-out: IC50) [µM],Ki ([1]; read-out: Ki) [µM]
O=C(O)CNCP(=O)(O)O [GLYPHOSATE],Not Active,Not Active,Not Active,Not Active,Not Active,Not Active,Not Active,Not Active,Not Active,,,,,,,,,
Nc1nc(F)nc2c1ncn2[C@@H]1O[C@H](CO)[C@@H](O)[C@@H]1O [FLUDARABINE],Not Active,Not Active,Not Active,Not Active,Not Active,Not Active,Not Active,Not Active,Not Active,,,,,,,,,
NCC(CC(=O)O)c1ccc(Cl)cc1 (centres undefined) [BACLOFEN],Not Active,Not Active,Not Active,Not Active,Not Active,Not Active,Not Active,Not Active,Not Active,,,,,,,,,
"O=C(Nc1ccc(Cl)c(Cl)c1)c1cc(Cl)cc(Cl)c1O [3,3',4',5-TETRACHLOROSALICYLANILIDE]",Not Active,Not Active,Not Active,Not Active,Not Active,Not Active,Not Active,Not Active,Not Active,,,,,,,,,
CN(Cc1cc(Br)cc(Br)c1N)C1CCCCC1 [BROMHEXINE],Not Active,Not Active,Not Active,Not Active,Not Active,Not Active,Not Active,Not Active,Not Active,,,,,,,,,
CC(C)Cc1ccc([C@H](C)C(=O)O)cc1 [DEXIBUPROFEN],Not Active,Not Active,Not Active,Not Active,Not Active,Not Active,Not Active,Not Active,Not Active,,,,,,,,,
CC(C)Cn1cnc2c(N)nc3ccccc3c21 [IMIQUIMOD],Not Active,Not Active,Not Active,Not Active,Not Active,Not Active,Not Active,Not Active,Not Active,,,,,,,,,
CC(C)(C#N)c1cc(Cn2cncn2)cc(C(C)(C)C#N)c1 [ANASTROZOLE],Not Active,Not Active,Not Active,Not Active,Not Active,Not Active,Not Active,Not Active,Not Active,,,,,,,,,
POVIDONE,Not Active,Not Active,Not Active,Not Active,Not Active,Not Active,Not Active,Not Active,Not Active,Not Active,Not Active,Not Active,Not Active,Not Active,,,,
COc1ccccc1OCCNCC(O)COc1cccc2[nH]c3ccccc3c12 (centres undefined) [CARVEDILOL],Not Active,Not Active,Not Active,Not Active,Not Active,Not Active,Not Active,,Not Active,,,,,,0.538,0.533,,
CARBOXYMETHYLCELLULOSE,Not Active,Not Active,Not Active,Not Active,Not Active,Not Active,Not Active,Not Active,Not Active,Not Active,Not Active,Not Active,Not Active,Not Active,,,,
OC[C@H]1O[C@@H]2O[C@H]3[C@H](O)[C@@H](O)[C@@H](O[C@H]4[C@H](O)[C@@H](O)[C@@H](O[C@H]5[C@H](O)[C@@H](O)[C@@H](O[C@H]6[C@H](O)[C@@H](O)[C@@H](O[C@H]7[C@H](O)[C@@H](O)[C@@H](O[C@H]1[C@H](O)[C@H]2O)O[C@@H]7CO)O[C@@H]6CO)O[C@@H]5CO)O[C@@H]4CO)O[C@@H]3CO [ALFADEX],Not Active,Not Active,Not Active,Not Active,Not Active,Not Active,Not Active,Not Active,Not Active,,,,,,,,,
COC(=O)C[C@](O)(CCC(C)(C)O)C(=O)O[C@@H]1C(OC)=C[C@]23CCCN2CCc2cc4c(cc2[C@H]13)OCO4 [HARRINGTONINE],Not Active,Not Active,Not Active,Not Active,Not Active,Not Active,Not Active,Not Active,Not Active,,,,,,,,,
O=C1CN(/N=C/c2ccc([N+](=O)[O-])o2)C(=O)N1 [NITROFURANTOIN],Not Active,Not Active,Not Active,Not Active,Not Active,Not Active,Not Active,Not Active,Not Active,,,,,,,,,
O=C(NCCN1CCOCC1)c1ccc(Cl)cc1 [MOCLOBEMIDE],Not Active,Not Active,Not Active,Not Active,Not Active,Not Active,Not Active,Not Active,Not Active,,,,,,,,,
CC(N)Cc1c[nH]c2ccc(OCc3cccs3)cc12 (centres undefined) [BW-723C86],Not Active,Not Active,Not Active,Not Active,Not Active,Not Active,Not Active,,Not Active,,,,,,3.63,3.6,,
CCN1C[C@]2(COC)[C@H](O)C[C@H](OC)[C@@]34[C@@H]5C[C@@]6(O)[C@H](OC(=O)c7ccccc7)[C@@H]5[C@@](OC(C)=O)([C@@H]([C@H](OC)[C@H]23)[C@@H]14)[C@@H](O)[C@@H]6OC [ACONITINE],Not Active,Not Active,Not Active,Not Active,Not Active,Not Active,Not Active,Not Active,Not Active,,,,,,,,,
OC[C@H]1OC2C3[C@@H](CO)OC(O[C@H]4[C@H](O)[C@@H](O)[C@@H](O[C@H]5[C@H](O)[C@@H](O)[C@@H](O[C@H]6[C@H](O)[C@@H](O)[C@@H](O[C@H]7[C@H](O)[C@@H](O)[C@@H](O[C@H]8[C@H](O)[C@@H](O)[C@@H](O[C@H]9[C@H](O)[C@@H](O)C(OC1[C@H](O)[C@H]2O)O[C@@H]9CO)O[C@@H]8CO)O[C@@H]7CO)O[C@@H]6CO)O[C@@H]5CO)O[C@@H]4CO)[C@H](O)[C@H]3O,Not Active,Not Active,Not Active,Not Active,Not Active,Not Active,Not Active,Not Active,Not Active,,,,,,,,,
CN(CCOc1ccc(C[C@H](Nc2ccccc2C(=O)c2ccccc2)C(=O)O)cc1)c1ccccn1,,Not Active,Not Active,Not Active,Not Active,Not Active,Not Active,,Not Active,,,,,,40.3,40,14.5,4.84
CCN1CCN(c2cc3c(cc2F)c(=O)c(C(=O)O)cn3C2CC2)CC1 [ENROFLOXACIN],Not Active,Not Active,Not Active,Not Active,Not Active,Not Active,Not Active,Not Active,Not Active,,,,,,,,,
